The target of test [1] is recombinant Chk2 protein kinase (Homo sapiens, UniProt O96017). Kind of test: Chk2 biochemical assay (CHK2/substrate peptide filter binding). The conditions noted are these: 60 μM ATP, 1.4 nM Chk2 enzyme. As to the method:
The effect of compounds on Chk2 biochemical activity can be determined using a CHK2/substrate peptide filter binding assay. In this assay, a synthetic peptide based on the amino acid sequence residues 206-225 of Cdc25C, is used as a phospho-acceptor substrate for recombinant Chk2 protein kinase. Using γ-^33P-ATP as the phospho-donor substrate, Chk2 transfers the radioactive γ-^33phosphate group to the synthetic peptide. The reaction is measured by capturing the peptide substrate on a cation exchange paper filter plate and scintillation counting of emitted beta particles.
The kinase reactions (40 μL reaction volumes) are performed in 96-well V-bottom polystyrene plates. Reactions are initiated with the addition of Chk2 enzyme. […]
Following Chk2 enzyme addition, the reactions are incubated at room temperature for 90 min, and then terminated with the addition of 140 μL of phosphoric acid. […] After sitting for 4 h at room temperature, the radioactivity in the plate is measured using a MicroBeta Trilux microplate scintillation counter (Perkin Elmer).
For IC50 determination, the percent inhibition for each concentration is calculated using the […] from controls run on each plate. […] Absolute IC50 values are calculated from the resulting curve. […]

Another test addresses T1, Chk1 (Homo sapiens, UniProt O14757).
T1 sequence (O14757 1-476): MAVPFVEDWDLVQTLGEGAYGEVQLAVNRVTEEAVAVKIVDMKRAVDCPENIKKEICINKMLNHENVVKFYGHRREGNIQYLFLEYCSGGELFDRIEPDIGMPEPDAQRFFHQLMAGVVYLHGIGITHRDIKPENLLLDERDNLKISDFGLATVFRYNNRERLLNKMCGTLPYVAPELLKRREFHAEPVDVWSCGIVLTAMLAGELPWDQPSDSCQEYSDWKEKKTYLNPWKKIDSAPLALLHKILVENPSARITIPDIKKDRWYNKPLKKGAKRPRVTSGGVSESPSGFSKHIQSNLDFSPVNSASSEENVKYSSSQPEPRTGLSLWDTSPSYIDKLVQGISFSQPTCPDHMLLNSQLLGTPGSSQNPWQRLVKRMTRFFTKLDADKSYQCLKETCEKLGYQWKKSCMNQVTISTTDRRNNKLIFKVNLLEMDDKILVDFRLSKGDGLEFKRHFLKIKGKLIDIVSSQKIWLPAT
The test is described as follows: Chk1 biochemical assay (CHK1/substrate peptide filter binding). The conditions noted are these: 60 μM ATP, 0.75 nM Chk1 enzyme. As for the experimental part: The effect of compounds on Chk1 biochemical activity can be determined using a CHK1/substrate peptide filter binding assay. In this assay, a synthetic peptide based on the amino acid sequence residues 206-225 of Cdc25, is used as a phospho-acceptor substrate for recombinant Chk1 protein kinase. Using γ-^33P-ATP as the phospho-donor substrate, Chk1 transfers the radioactive γ-^33phosphate group to the synthetic peptide. The reaction is measured by capturing the peptide substrate on a cation exchange paper filter plate and scintillation counting of emitted beta particles.
The kinase reactions (40 μL reaction volumes) are performed in 96-well V-bottom polystyrene plates. Reactions are initiated with the addition of Chk1 enzyme. […]
Following Chk1 enzyme addition, the reactions are incubated at room temperature for 90 min, and then terminated with the addition of 140 μL of phosphoric acid. […] After sitting for 4 h at room temperature, the radioactivity in the plate is measured using a MicroBeta Trilux microplate scintillation counter (Perkin Elmer).
For IC50 determination, the percent inhibition for each concentration is calculated using the scintillation count ratio from controls run on each plate. […] Absolute IC50 values are calculated from the resulting curve. […]

The test system of test [2] is HT-29 colon tumor xenograft. The test is described as follows: HT-29 tumor xenograft model, oral administration of Chk1 inhibitor. It is filed as in vivo, nude mice. As for the experimental part: The ability of Chk1 inhibitors to potentiate tumor killing by DNA damaging agents can be determined in vivo using the Calu-6 lung and HT-29 colon tumor xenograft efficacy models. Calu-6 lung cancer cells are cultured in growth media (MEM with Earle's Balanced Salt Solution with L-glutamine supplemented with 10% (v/v) heat inactivated FBS, 1×MEM non-essential amino acids, 1× sodium pyruvate) and HT-29 colon cancer cells (ATCC) are cultured in growth media, (McCoy's 5A medium supplemented with 10% FBS) and expanded.
Cells are harvested and washed twice with phosphate buffered saline and 5×10^6 cells (HT-29) or 1×10^6 a cells (Calu-6) in growth media (without serum) are mixed with equal volume of BD Matrigel™ matrix, then injected subcutaneously into the flank of nude mice (CD-1 nu/nu).
At about day 16 after implant (150-200 mm^3), gemcitabine is formulated fresh in saline daily and administered to animals by intraperitoneal route at 40 mg/kg dose. Twenty four hours later animals are administered Chk1 compound, in 0.2% Tween-80/0.5% methylcellulose by the oral route MD. After three days of rest, dosing was repeated for three additional cycles (Q5Dx4 with the compound of Example 3 offset+24 hours). Tumor growth inhibition (TGI) is calculated as described in the previous paragraph. Compounds within the scope of the invention are tested in this assay run substantially as above.

pIC50: −log10 of the molar value. Counter-ions that a name gives are not always drawn.

Chain of recombinant Chk2 protein kinase (O96017 whole entry, the tested form may be a part): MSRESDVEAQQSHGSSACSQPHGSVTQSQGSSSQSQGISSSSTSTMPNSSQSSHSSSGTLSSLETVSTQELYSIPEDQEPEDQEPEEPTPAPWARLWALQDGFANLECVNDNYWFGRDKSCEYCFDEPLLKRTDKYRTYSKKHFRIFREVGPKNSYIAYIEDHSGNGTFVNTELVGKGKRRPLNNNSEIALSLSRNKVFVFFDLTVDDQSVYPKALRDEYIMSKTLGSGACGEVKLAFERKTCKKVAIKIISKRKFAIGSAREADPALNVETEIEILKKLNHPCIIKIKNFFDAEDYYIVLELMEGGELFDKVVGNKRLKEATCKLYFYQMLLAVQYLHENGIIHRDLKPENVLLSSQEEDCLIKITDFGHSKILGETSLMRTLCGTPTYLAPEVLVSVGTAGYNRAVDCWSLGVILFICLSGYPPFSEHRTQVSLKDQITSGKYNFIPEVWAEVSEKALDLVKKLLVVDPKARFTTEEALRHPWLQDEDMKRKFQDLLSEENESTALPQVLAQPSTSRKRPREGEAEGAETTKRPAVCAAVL

`COc1nc(C)ccc1-c1cc(Nc2cncc(O[C@@H]3CCCNC3)n2)[nH]n1` [Example 1, (R)-[5-(2-Methoxy-6-methyl-pyridin-3-yl)-2H-pyrazol-3-yl]-[6-(piperidin-3-yloxy)-pyrazin-2-yl]-amine]: the pIC50 in test [1] was 7.96; at Chk1, over 9.00.
Regarding `COc1nc(C)ccc1-c1cc(Nc2cncc(O[C@@H]3CCCNC3)n2)[nH]n1` [Example 3, (R)-[5-(2-Methoxy-6-methyl-pyridin-3-yl)-2H-pyrazol-3-yl]-[6-(piperidin-3-yloxy)-pyrazin-2-yl]-amine acetic acid salt], in test [2] (HT29, Example 3 30 mpk oral alone), the “% TGI at day 50” value was 39%. Also, in test [2] (HT-29 xenograft, oral, gemcitabine 40 mg/kg ip), the “anti-tumor activity in combination with gemcitabine” value is listed as “excellent dose dependent anti-tumor activity”. For the same compound, the “increase in tumor growth inhibition over gemcitabine alone” value in test [2] (oral, stated for HT-29 and Calu-6 models together) was ≤ 2,9 fold.

The record behind these values is US9067920B2, “Compounds useful for inhibiting Chk1” (Eli Lilly and Company, priority 2010, dated 2015).
